Measured values from patent US10675257B2, “Method of treating cancer with a combination of benzylideneguanidine derivatives and chemotherapeutic agent” (InFlectis BioScience, priority 2015, dated 2020).
“Also recorded” adds a separate entry of the source. Counter-ions that a name gives are not always drawn.

System: glioblastoma cell line GL261
Experiment: GL261 glioblastoma tumor grafted on the chorio-allantoic membrane (CAM) of embryonated chicken eggs, tumor weight at E19
Format: in vivo, chicken embryo (Fertilized White Leghorn eggs)
Details: for Tumor weight (mg) (N = 18) / Tumor weight (mg) (N = 7 to 12): after 10 days of treatment; for Effect on GL261 tumor size/weight on the upper CAM, in words: test compound (100 nM) together with temozolomide (500 microM), compared to temozolomide alone or compound alone; for Effect on GL261 tumor size, in words: test compound alone (100 nM)
Description: Fertilized White Leghorn eggs were incubated at 38° C. with 60% relative humidity for 9 days. At this time (E9), the chorio-allantoic membrane (CAM) was dropped by drilling a small hole through the eggshell into the air sac and a 1 cm^2 window was cut in the eggshell above the CAM.
Cultured glioblastoma cell line GL261 were detached by trypsinization, washed with complete medium, labeled and suspended in serum free DMEM. An inoculum of GL261 cells was added onto the CAM of each egg. Eggs were then randomized in 6 groups.
They were then treated during 10 days, every two days (E10, E12, E14, E16, E18), by dropping 100 μl of test compound (100 nM), Temozolomide (500 microM), test compound (100 nM) and Temozolomide (500 microM), or Control (0.02% DMSO) onto the tumor.
At day E19 the upper portion of the CAM was removed, transferred in PBS and the tumors were then carefully cut away from normal CAM tissue. Tumors were then weighted. In parallel, a 1 cm^2 portion of the lower CAM was collected to evaluate the number of nodules, containing expressing cells. The fluorescent nodules were visualized in situ using whole mounts of fixed tissue and flattened between a hollow glass slide and a thick coverslip. In order to number the nodules, a thorough and complete visual scan of the piece of the lower CAM was done using fluorescent microscope.
Glioblastoma cell line GL261 was grafted on the chorio-allantoic membrane (CAM) of Fertilized White Leghorn eggs. The tumors were treated every two days with test compound ([…]), temolozomide (500 microM) or test compound (100 nM) and temozolomide (500 microM). For the control, the tumors were treated with 0.02% DMSO. Between seven (7) to eighteen (18) eggs were treated for each condition.

[1] = combination test compound/Temozolomide 100 nM/500microM, control 120.5
[2] = combination test compound/Temozolomide 100 nM/500 μM, control 106.65
[3] = test compound alone 100 nM, control (0.02% DMSO) 106.65

NC(N)=N/N=C/c1c(Cl)cccc1Cl [Compound 1, 2-(2,6-dichlorobenzylidene)hydrazine carboximidamide, reference compound]
Tumor weight (mg) (N = 18) [1]: 68.3 mg
Tumor weight (mg) (N = 18) (test compound alone 100 nM, control (0.02% DMSO) 120.5): 115 mg

CC(=O)O.N=C(N)N/N=C/c1ccncc1Cl [Compound 6, 2-[(3-chloropyridin-4-yl)methylidene]hydrazinecarboximidamide Acetate]
Tumor weight (mg) (N = 7 to 12) [2]: 70.45 mg
Effect on GL261 tumor size/weight on the upper CAM, in words (Acetate): synergistic reduction of GL261 tumor weight; also recorded: synergistic effect to reduce the tumor size
Tumor weight (mg) (N = 7 to 12) [3]: 107.76 mg
Effect on GL261 tumor size, in words (Acetate): no effect on tumor size reduction; also recorded: no effect to reduce the tumor size

CC(C)CCO/N=C(\N)N/N=C/c1ccccc1Cl [Compound 11, Formate Salt]
Tumor weight (mg) (N = 7 to 12) [2]: 67.29 mg
Effect on GL261 tumor size/weight on the upper CAM, in words (Formate Salt): synergistic reduction of GL261 tumor weight; also recorded: synergistic effect to reduce the tumor size
Tumor weight (mg) (N = 7 to 12) [3]: 87.63 mg
Effect on GL261 tumor size, in words: reduces the tumor size

C=CCO/N=C(\N)N/N=C/c1ccccc1Cl [Compound 15, 2-(2-chlorobenzylidene)-N′-(prop-2-en-1-yloxy)hydrazine Carboximidamide]
Tumor weight (mg) (N = 7 to 12) [2]: 40.66 mg
Effect on GL261 tumor size/weight on the upper CAM, in words: synergistic reduction of GL261 tumor weight; also recorded: synergistic effect to reduce the tumor size
Tumor weight (mg) (N = 7 to 12) [3]: 63.44 mg
Effect on GL261 tumor size, in words: reduces the tumor size

N/C(=N\OCCO)N/N=C/c1ccccc1Cl [Compound 16, 2-(2-chlorobenzylidene)-N′-(2-hydroxyethoxy)hydrazinecarboximidamide]
Tumor weight (mg) (N = 7 to 12) [2]: 48.11 mg
Effect on GL261 tumor size/weight on the upper CAM, in words: further reduction of GL261 tumor weight; also recorded: further reduce the tumor size
Effect on GL261 tumor size, in words: display anti-glioma activity by reducing the tumor size

CCO/N=C(\N)N/N=C/c1ccccc1Cl [Compound 20, 2-(2-chlorobenzylidene)-N′-ethoxyhydrazinecarboximidamide]
Tumor weight (mg) (N = 7 to 12) [2]: 73.51 mg
Effect on GL261 tumor size/weight on the upper CAM, in words: further reduction of GL261 tumor weight; also recorded: further reduce the tumor size
Effect on GL261 tumor size, in words: display anti-glioma activity by reducing the tumor size

CCCO/N=C(\N)N/N=C/c1ccccc1Cl [Compound 22, 2-(2-chlorobenzylidene)-N-propoxyhydrazinecarboximidamide]
Tumor weight (mg) (N = 18) [1]: 48.4 mg
Effect on GL261 tumor size/weight on the upper CAM, in words: synergistic reduction of GL261 tumor weight; also recorded: synergistic effect to reduce the tumor size

CCSCCO/N=C(\N)N/N=C/c1ccccc1Cl [Compound 25, 2-(2-chlorobenzylidene)-N-[2-(ethylsulfanyl)ethoxy]hydrazinecarboximidamide]
Tumor weight (mg) (N = 7 to 12) [2]: 43.6 mg

CCO/N=C(\N)N/N=C/c1ccncc1Cl [Compound 26, 2-[(3-chloropyridin-4-yl)methylidene]-N-ethoxyhydrazinecarboximidamide]
Tumor weight (mg) (N = 7 to 12) [2]: 66.23 mg
Effect on GL261 tumor size/weight on the upper CAM, in words: further reduction of GL261 tumor weight; also recorded: further reduce the tumor size
Effect on GL261 tumor size, in words: display anti-glioma activity by reducing the tumor size

CCCCO/N=C(\N)N/N=C/c1ccccc1Cl [Compound 28, N′-butoxy-2-(2-chlorobenzylidene)hydrazinecarboximidamide]
Tumor weight (mg) (N = 7 to 12) [2]: 51.33 mg
Effect on GL261 tumor size/weight on the upper CAM, in words: further reduction of GL261 tumor weight; also recorded: further reduce the tumor size
Effect on GL261 tumor size, in words: display anti-glioma activity by reducing the tumor size

CCCO/N=C(\N)N/N=C/c1c(F)cccc1Cl [Compound 29, 2-(2-chloro-6-fluorobenzylidene)-N′-propoxyhydrazinecarboximidamide]
Tumor weight (mg) (N = 7 to 12) [2]: 54.13 mg
Effect on GL261 tumor size/weight on the upper CAM, in words: further reduction of GL261 tumor weight; also recorded: further reduce the tumor size
Effect on GL261 tumor size, in words: display anti-glioma activity by reducing the tumor size

CCCO/N=C(\N)N/N=C/c1ccncc1Cl [Compound 33, 2-[(3-chloropyridin-4-yl)methylidene]-N-propoxyhydrazinecarboximidamide]
Tumor weight (mg) (N = 7 to 12) [2]: 62.42 mg
Effect on GL261 tumor size/weight on the upper CAM, in words: further reduction of GL261 tumor weight; also recorded: further reduce the tumor size
Effect on GL261 tumor size, in words: display anti-glioma activity by reducing the tumor size

Cn1nnc2c(C(N)=O)ncn2c1=O [Temozolomide, 3,4-dihydro-3-methyl-4-oxoimidazo [5,1-d]-as-tetazine-8-carboxamide, reference compound]
Tumor weight (mg) (N = 7 to 12) (Temozolomide alone 500 μM, control (0.02% DMSO) 106.65): 90.17 mg
Tumor weight (mg) (N = 18) (Temozolomide alone 500microM, control (0.02% DMSO) 120.5): 86.3 mg
